Source: patent US20070116829A1, “Pharmaceutical Composition with High-Potency Sweetener” (THE COCA-COLA COMPANY, priority 2005, published 2007)

What was measured:
[1] = Rate of dissolution in H2O at 25° C. of rebaudioside A polymorph and amorphous forms; format: physicochemical
[2] = format: physicochemical
Protocol: A solution of rebaudioside A (>97% pure by HPLC) was prepared in double distilled water (12.5 gm in 50 mL, 25% concentration) by stirring the mixture at 40° C. for 5 minutes. An amorphous form of rebaudioside A was formed by immediately using the clear solution for spray drying with the Lab-Plant spray drier SD-04 instrument (Lab-Plant Ltd., West Yorkshire, U.K.). The solution was fed through the feed pump into the nozzle atomizer which atomized it into a spray of droplets with the help of a constant flow of nitrogen/air. […] This dry powder (11-12 g, H2O 6.74%) was discharged continuously from the drying chamber and was collected in a bottle.

Row | Compound | Rate of dissolution in H2O at 25° C. (in words) [1] | Rate of dissolution in H2O at 25° C. ([1]; per 60 minutes) | Rate of dissolution in H2O at 25° C. ([1]; per 5 minutes) | solubility in water at room temperature [2] [%]
1 | C=C1C[C@@]23CC[C@H]4[C@@](C)(CCC[C@@]4(C)C(=O)O[C@@H]4O[C@H](CO)[C@@H](O)[C@H](O)[C@H]4O)[C@@H]2CC[C@]1(O[C@@H]1O[C@H](CO)[C@@H](O)[C@H](O[C@@H]2O[C@H](CO)[C@@H](O)[C@H](O)[C@H]2O)[C@H]1O[C@@H]1O[C@H](CO)[C@@H](O)[C@H](O)[C@H]1O)C3 [Form 1, rebaudioside A] | Very low | (<0.2%/60 %/60 minutes |  | 
2 | C=C1C[C@@]23CC[C@H]4[C@@](C)(CCC[C@@]4(C)C(=O)O[C@@H]4O[C@H](CO)[C@@H](O)[C@H](O)[C@H]4O)[C@@H]2CC[C@]1(O[C@@H]1O[C@H](CO)[C@@H](O)[C@H](O[C@@H]2O[C@H](CO)[C@@H](O)[C@H](O)[C@H]2O)[C@H]1O[C@@H]1O[C@H](CO)[C@@H](O)[C@H](O)[C@H]1O)C3 [Form 4, rebaudioside A] | High |  | (>35.0%/5 %/5 minutes | > 35.0
3 | C=C1C[C@@]23CC[C@H]4[C@@](C)(CCC[C@@]4(C)C(=O)O[C@@H]4O[C@H](CO)[C@@H](O)[C@H](O)[C@H]4O)[C@@H]2CC[C@]1(O[C@@H]1O[C@H](CO)[C@@H](O)[C@H](O[C@@H]2O[C@H](CO)[C@@H](O)[C@H](O)[C@H]2O)[C@H]1O[C@@H]1O[C@H](CO)[C@@H](O)[C@H](O)[C@H]1O)C3 [Form 3, rebaudioside A] | High |  | (>30%/5 %/5 minutes | 
4 | C=C1C[C@@]23CC[C@H]4[C@@](C)(CCC[C@@]4(C)C(=O)O[C@@H]4O[C@H](CO)[C@@H](O)[C@H](O)[C@H]4O)[C@@H]2CC[C@]1(O[C@@H]1O[C@H](CO)[C@@H](O)[C@H](O[C@@H]2O[C@H](CO)[C@@H](O)[C@H](O)[C@H]2O)[C@H]1O[C@@H]1O[C@H](CO)[C@@H](O)[C@H](O)[C@H]1O)C3 [Form 2, rebaudioside A] | Intermediate |  | (<30%/5 %/5 minutes | 
